Measurements as given in patent publication US10280170B2, “Substituted 4,5,6,7-tetrahydro-pyrazolo[1,5-a]pyrazine derivatives and 5,6,7,8-tetrahydro-4H-pyrazolo[1,5-a][1,4]diazepine derivatives as Ros1 inhibitors” (Janssen Pharmaceutica NV, priority 2014, dated 2019).
Like-named read-outs stand apart in the source and are kept apart here.

How the values were obtained:
Ros1 enzyme = molecular target: T1, Ros1 enzyme (Homo sapiens, UniProt P08922); test: Ros1 enzymatic assay; type: biochemical; details: Ros1 enzymatic assay; read-out: ROS1 pIC50 (converted)
T1 construct: 0.5 μg/ml Ros1 enzyme
T1 sequence (P08922 28-2347): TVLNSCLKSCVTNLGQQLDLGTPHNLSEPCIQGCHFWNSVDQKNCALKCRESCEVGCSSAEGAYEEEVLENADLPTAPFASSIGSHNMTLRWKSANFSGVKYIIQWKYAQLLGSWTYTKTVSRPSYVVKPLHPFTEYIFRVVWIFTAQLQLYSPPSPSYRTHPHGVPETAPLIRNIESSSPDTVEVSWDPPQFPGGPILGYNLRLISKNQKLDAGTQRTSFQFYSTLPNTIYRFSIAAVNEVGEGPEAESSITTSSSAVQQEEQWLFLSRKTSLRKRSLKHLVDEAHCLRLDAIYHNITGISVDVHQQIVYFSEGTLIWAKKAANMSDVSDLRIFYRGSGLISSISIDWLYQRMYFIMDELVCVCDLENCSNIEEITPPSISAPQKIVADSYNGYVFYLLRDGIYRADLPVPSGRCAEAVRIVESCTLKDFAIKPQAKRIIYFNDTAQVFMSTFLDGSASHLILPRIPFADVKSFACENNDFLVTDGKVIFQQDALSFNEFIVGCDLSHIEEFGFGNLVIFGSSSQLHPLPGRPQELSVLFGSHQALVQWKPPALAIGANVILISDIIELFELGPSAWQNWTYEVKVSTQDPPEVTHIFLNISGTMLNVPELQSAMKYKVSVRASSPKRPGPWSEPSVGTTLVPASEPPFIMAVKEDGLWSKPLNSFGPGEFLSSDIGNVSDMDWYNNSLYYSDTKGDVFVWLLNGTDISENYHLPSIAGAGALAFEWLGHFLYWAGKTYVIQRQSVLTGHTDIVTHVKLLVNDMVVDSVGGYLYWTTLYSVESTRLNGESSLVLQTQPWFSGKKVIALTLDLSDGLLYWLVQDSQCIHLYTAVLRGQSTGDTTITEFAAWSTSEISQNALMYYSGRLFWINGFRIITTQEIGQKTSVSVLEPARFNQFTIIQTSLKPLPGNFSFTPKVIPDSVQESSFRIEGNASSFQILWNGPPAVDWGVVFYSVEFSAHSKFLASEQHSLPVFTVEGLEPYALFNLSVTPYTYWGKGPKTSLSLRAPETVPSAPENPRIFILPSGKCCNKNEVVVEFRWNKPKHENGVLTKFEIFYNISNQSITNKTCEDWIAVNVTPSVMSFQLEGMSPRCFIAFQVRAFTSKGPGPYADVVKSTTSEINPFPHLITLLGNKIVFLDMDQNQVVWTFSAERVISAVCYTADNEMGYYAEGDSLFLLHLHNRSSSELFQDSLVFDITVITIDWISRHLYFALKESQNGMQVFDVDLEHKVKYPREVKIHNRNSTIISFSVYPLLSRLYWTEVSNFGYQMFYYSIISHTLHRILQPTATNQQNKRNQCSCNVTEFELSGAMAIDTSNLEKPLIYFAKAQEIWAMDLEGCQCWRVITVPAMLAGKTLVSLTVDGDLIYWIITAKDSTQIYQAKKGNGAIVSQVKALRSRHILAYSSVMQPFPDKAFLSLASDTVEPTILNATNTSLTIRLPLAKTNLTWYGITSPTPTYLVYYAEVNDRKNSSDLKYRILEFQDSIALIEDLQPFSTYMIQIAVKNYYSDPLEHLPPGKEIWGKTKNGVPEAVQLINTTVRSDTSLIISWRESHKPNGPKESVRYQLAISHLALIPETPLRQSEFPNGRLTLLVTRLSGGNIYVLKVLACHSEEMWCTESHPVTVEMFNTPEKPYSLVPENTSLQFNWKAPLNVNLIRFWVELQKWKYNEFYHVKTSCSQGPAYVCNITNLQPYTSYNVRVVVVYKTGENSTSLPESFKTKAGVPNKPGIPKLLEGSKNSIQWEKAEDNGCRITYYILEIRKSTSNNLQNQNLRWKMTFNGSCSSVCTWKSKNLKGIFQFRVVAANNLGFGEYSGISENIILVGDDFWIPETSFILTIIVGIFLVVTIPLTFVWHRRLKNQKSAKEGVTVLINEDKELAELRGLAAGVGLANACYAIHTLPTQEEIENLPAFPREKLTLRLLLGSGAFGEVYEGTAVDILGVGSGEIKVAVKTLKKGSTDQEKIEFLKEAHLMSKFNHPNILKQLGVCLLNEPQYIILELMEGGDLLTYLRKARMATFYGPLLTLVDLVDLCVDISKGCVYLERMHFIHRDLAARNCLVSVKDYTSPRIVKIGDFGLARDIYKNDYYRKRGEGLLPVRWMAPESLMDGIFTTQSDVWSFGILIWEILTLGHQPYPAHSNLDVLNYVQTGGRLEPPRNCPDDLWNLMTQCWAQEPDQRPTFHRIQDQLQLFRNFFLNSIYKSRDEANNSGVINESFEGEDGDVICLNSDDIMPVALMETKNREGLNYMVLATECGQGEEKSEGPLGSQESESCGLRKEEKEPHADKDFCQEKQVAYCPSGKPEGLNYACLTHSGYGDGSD
Outline: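 Radiometric proximity read-out: 33P incorporated into IRS-Tide captured on streptavidin imaging beads and imaged on LEADseeker. Phosphorylation ran 120 min at RT with 20 μM ATP (substrate-mix level) in Tris pH7.5/MgCl2/EGTA/Tween buffer; EDTA stop.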

[1] = molecular target: T2, Ba/F3 cells containing Ros1 wild-type protein (Homo sapiens, UniProt P08922, cells depend on it, form not given); test: Ba/F3-Ros1 cell proliferation assay, wild-type Ros1; type: cell-based, murine; details: without IL-3
T2 construct: The background only speaks of 'a number of different unrelated proteins' and names SLC34A2-ROS1 for HCC78 cells
T2 sequence (P08922 whole entry, stated change not applied): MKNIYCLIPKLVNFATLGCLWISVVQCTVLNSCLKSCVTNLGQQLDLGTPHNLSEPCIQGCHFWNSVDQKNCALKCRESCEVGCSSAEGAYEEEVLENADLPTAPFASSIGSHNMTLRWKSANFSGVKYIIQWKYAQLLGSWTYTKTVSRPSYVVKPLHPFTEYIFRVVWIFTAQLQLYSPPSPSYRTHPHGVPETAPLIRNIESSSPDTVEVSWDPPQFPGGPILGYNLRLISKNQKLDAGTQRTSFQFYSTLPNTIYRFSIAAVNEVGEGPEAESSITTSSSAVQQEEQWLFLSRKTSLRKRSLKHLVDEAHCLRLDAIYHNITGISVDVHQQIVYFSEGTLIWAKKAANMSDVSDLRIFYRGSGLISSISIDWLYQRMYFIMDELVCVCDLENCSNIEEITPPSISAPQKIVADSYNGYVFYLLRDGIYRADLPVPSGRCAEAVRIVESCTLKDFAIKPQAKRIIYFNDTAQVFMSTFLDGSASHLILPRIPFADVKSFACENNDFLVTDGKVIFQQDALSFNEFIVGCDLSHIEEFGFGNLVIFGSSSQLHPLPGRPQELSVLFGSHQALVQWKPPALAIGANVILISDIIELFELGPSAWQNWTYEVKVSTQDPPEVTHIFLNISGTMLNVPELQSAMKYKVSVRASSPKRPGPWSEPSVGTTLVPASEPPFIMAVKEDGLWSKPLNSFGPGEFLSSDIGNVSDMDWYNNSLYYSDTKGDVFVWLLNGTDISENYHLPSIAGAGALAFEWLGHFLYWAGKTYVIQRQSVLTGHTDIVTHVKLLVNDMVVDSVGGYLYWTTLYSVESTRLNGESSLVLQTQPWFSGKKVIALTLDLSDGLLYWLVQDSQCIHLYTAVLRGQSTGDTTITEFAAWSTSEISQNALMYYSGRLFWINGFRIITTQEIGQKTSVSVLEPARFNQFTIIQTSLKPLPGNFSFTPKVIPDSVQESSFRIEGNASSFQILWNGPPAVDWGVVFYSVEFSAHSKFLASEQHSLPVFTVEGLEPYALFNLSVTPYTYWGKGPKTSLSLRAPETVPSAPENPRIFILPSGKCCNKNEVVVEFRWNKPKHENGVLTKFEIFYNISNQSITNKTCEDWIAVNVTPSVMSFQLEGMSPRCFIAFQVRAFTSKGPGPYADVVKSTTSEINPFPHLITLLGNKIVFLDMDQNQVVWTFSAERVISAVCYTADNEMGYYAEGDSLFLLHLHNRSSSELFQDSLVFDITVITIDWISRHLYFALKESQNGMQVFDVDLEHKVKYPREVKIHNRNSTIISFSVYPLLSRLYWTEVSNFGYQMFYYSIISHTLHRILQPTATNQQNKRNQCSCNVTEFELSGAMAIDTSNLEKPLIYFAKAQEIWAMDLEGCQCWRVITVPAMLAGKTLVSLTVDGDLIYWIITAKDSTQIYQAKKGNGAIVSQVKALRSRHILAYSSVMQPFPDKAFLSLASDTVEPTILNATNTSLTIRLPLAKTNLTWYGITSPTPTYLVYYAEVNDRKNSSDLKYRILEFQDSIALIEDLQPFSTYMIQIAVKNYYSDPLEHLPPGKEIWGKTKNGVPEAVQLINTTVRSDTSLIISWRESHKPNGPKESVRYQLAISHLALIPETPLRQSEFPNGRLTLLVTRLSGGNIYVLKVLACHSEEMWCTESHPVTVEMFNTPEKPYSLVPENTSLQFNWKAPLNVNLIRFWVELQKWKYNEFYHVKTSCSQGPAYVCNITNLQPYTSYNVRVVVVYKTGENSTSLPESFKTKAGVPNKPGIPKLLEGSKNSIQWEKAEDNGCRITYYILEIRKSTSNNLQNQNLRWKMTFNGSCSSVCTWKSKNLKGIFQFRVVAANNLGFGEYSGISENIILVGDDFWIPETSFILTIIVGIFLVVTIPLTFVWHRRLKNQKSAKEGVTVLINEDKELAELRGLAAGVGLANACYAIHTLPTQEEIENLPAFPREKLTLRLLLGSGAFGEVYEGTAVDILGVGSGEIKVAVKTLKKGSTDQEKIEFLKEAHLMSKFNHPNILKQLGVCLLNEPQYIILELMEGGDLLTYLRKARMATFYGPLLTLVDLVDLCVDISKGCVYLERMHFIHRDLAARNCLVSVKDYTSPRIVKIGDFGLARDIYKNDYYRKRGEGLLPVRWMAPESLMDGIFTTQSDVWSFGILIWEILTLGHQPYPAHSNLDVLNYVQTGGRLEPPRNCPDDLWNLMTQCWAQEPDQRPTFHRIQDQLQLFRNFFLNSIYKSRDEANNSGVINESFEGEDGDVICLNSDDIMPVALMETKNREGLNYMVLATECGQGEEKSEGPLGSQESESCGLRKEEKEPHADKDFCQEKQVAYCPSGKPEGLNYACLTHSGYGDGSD
Outline: (§1)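 Ba/F3 cells expressing wild-type, L2026M or G2032R Ros1 (20000 per well) were incubated with DMSO-solubilized compounds in phenol red-free RPMI-1640 with 10% FBS and 2 mM L-glutamine at 37 °C, 5% CO2 for 24 hours. Viability was then read by Alamar Blue fluorescence (ex 540/em 590 nm) after 4 h.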

[2] = molecular target: Ba/F3 cells containing Ros1 with a mutation at the gatekeeper residue (L2026M) (Homo sapiens, UniProt P08922, L2026M, cells depend on it, form not given); test: Ba/F3-Ros1 cell proliferation assay, L2026M gatekeeper mutant; type: cell-based, murine; details: without IL-3
Ba/F3 cells containing Ros1 with a mutation at the gatekeeper residue (L2026M), sequence (P08922 whole entry L2026M, form open): as the sequence (P08922 whole entry, stated change not applied) above, with L2026M counted along it
Outline: as §1

[3] = tested on: Ba/F3 cells containing Ros1 wild-type protein + IL-3; test: Ba/F3-Ros1 cell proliferation counter-screen, wild-type protein in the presence of 10 ng/ml murine IL-3; type: cell-based; details: Mus musculus, BaF3, 24 h, read-out: BaF3-ROS1 + IL3 pIC50 (converted)
Outline: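 IL-3 rescue counter-screen: WT Ros1 Ba/F3, 10 ng/ml mIL-3, 24 h compound exposure, 37 °C/5% CO2; Alamar Blue added 4 h, RFU ex540/em590.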

[4] = tested on: HCC78 non-small cell lung cancer cells; test: HCC78 cell proliferation assay; type: cell-based; details: for EC50: Homo sapiens, HCC78, 96 h, read-out: HCC-78 PROL pEC50 (converted)
Outline: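 HCC78 NSCLC cells (~1000/well) in RPMI-1640 with 10% FBS were treated 24 h after seeding and exposed to compound for 4 days at 37 °C. Viability was read by MTT, with absorbance at 538 nm after DMSO/glycine solubilization.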

[5] = counter-screen, wild-type, 10 ng/ml murine IL-3

Row | Compound | IC50 (Ros1 enzyme) [nM] | BaF3-ROS1-IL3 pIC50 [1] | Ba/F3 Ros1 L2026M (-IL-3) pIC50 [2] | CC50 [3, 5] [nM] | EC50 ([4]; HCC78 cells, 4 days, MTT) [nM] | melting point [°C] | CC50 [3] [nM] | EC50 [4] [nM] | HCC-78 PROL pEC50 ([4]; HCC78 cells, 4 days, MTT)
1 | CC(C)c1ccc(COc2ccc(-c3c(-c4ccncc4)nn4c3C(=O)NCC4)cc2)cc1CCN [Compound 88] | 12.6 | 7.1 | 6.8 | > 10000 | 79.4 | 181 | – | – | –
2 | CC(C)c1ccc(COc2ccc(-c3c(-c4ccncc4)nn4c3C(=O)NC(CO)C4)cc2)cc1 (stereo not drawn) [Compound 193] | 79.4 | 7.3 | 6.3 | – | – | 254 | > 10000 | 200 | –
3 | CC(C)c1ccc(COc2ccc(-c3c(-c4ccncc4)nn4c3C(=O)NCC4)cc2Cl)cc1 [Compound 25] | 126 | 6.8 | 6.5 | – | – | 251 | > 10000 | 501 | –
4 | CC(C)c1ccc(COc2ccc(-c3c(-c4ccncc4)nn4c3C(=O)N(CC(O)CO)CC4)c(F)c2)cc1 (stereo not drawn) [Compound 23] | 12.6 | 7.7 | 7.2 | > 10000 | – | 192 | – | – | 7.2
5 | CC(O)CN1CCn2nc(-c3ccncc3)c(-c3ccc(OCc4ccc(C5CC5)cc4)cc3)c2C1=O (stereo not drawn) [Compound 134] | 79.4 | 7.3 | 7.0 | > 10000 | 200 | 196 | – | – | –
6 | CC(C)c1ccc(COc2ccc(-c3c(-c4ccnc5[nH]ccc45)nn4c3C(=O)NCC4)cc2)cc1 [Compound 155] | 31.6 | 7.8 | 7.5 | – | – | 266 | > 10000 | 79.4 | –
7 | Cc1ccc(COc2ccc(-c3c(-c4ccncc4)nn4c3C(=O)NCC4)cc2)cc1 [Compound 105] | 126 | 7.0 | 6.6 | – | – | 259 | > 10000 | 158 | –
8 | CC(C)Cc1ccc(COc2ccc(-c3c(-c4ccncc4)nn4c3C(=O)N(CCO)CC4)cc2)cc1 [Compound 109] | 100 | 7.1 | 7.2 | – | – | 155 | > 10000 | 398 | –
9 | COc1cc(-c2c(-c3ccncc3)nn3c2C(=O)N(CCO)CC3)cc(OC)c1OCc1ccc(C(C)C)cc1 [Compound 36] | 5010 | 5.8 | 5.7 | – | – | 176 | > 10000 | > 10000 | –
10 | O=C1c2c(-c3ccc(OCc4ccc(C5CC5)nc4)cc3)c(-c3ccncc3)nn2CCN1CCO [Compound 139] | 126 | 6.8 | 6.0 | – | – | 97 | > 10000 | 100 | –
11 | CC(C)c1ccc(COc2ccc(-c3c(-c4ccncc4)nn4c3C(=O)N(CCO)CC4)cc2)cc1O [Compound 79] | 25.1 | 7.8 | 7.3 | – | – | 236 | > 10000 | 2510 | –
12 | CC(C)c1ccc(COc2cc(F)c(-c3c(-c4ccncc4)nn4c3C(=O)NCC4)cn2)cc1 [Compound 73] | 15.8 | 7.9 | 7.4 | – | – | 207 | > 10000 | 126 | –
13 | CC(C)c1ccc(COc2ccc(-c3c(-c4ccncc4)nn4c3C(=O)NCC4)cc2)cc1CCO [Compound 11] | 10 | 7.7 | 7.8 | – | – | 195 | > 10000 | 31.6 | –
14 | CC(C)(O)c1ccc(COc2ccc(-c3c(-c4ccncc4)nn4c3C(=O)N(CCO)CC4)cc2)cc1 [Compound 115] | 1260 | 6.3 | <5 | – | – | 193 | > 10000 | 1580 | –
15 | CC(C)c1ccc(C2COc3cc(-c4c(-c5ccncc5)nn5c4C(=O)NCC5)ccc3O2)cc1 (stereo not drawn) [Compound 201] | 25.1 | 7.8 | 7.4 | > 10000 | 39.8 | 290 | – | – | –
16 | CC(C)(C#N)c1ccc(COc2ccc(-c3c(-c4ccncc4)nn4c3C(=O)N(CCO)CC4)cc2)cc1 [Compound 122] | 126 | 6.9 | 7.1 | – | – | 199 | > 10000 | 63.1 | –
17 | CC(C)c1ccc(C(CN)Oc2ccc(-c3c(-c4ccncc4)nn4c3C(=O)NCC4)cc2)cc1 (stereo not drawn) [Compound 147] | 3980 | 5.4 | 6.7 | – | – | 178 | 3980 | 3980 | –
18 | Cc1cc(-c2c(-c3ccncc3)nn3c2C(=O)N(CCO)CC3)cc(C)c1OCc1ccc(C(C)C)cc1 [Compound 30] | > 10000 | <5 | <5 | – | – | 170 | > 10000 | > 10000 | –
19 | O=C1c2c(-c3ccc(OCc4ccc(C5CC5)cc4)cc3)c(-c3ccncn3)nn2CCN1CCO [Compound 167] | 126 | 7.2 | 6.2 | – | – | 170 | > 10000 | 501 | –
20 | CC(C)c1ccc(COc2ccc(-c3c(-c4ccncc4)nn4c3C(=O)NCC4)c(F)n2)cc1 [Compound 74] | 15.8 | 8.1 | 7.5 | – | – | 275 | > 10000 | 12.6 | –
21 | CC(C)c1ccc(COc2ccc(-c3c(-c4ccnc5[nH]ccc45)nn4c3C(=O)N(CCO)CC4)cc2)cc1 [Compound 156] | 63.1 | 8.0 | 7.0 | > 10000 | 20 | 219 | – | – | –
22 | O=C1c2c(-c3ccc(OCc4ccc(C5CC5)cc4F)cc3)c(-c3ccncc3)nn2CCN1CCO [Compound 136] | 63.1 | 7.1 | 6.6 | – | – | 183 | > 10000 | 316 | –
